Laboratory results published in EP3722296B1, “DIHYDRONAPHTHYRIDINES AND RELATED COMPOUNDS USEFUL AS KINASE INHIBITORS FOR THE TREATMENT OF PROLIFERATIVE DISEASES” (Deciphera Pharmaceuticals, LLC, priority 2012, dated 2013).

How the values were obtained:
Format in all cases: biochemical
[1] = molecular target: T1, c-KIT D816V kinase (Homo sapiens, UniProt P10721, D816V); assay: c-KIT D816V kinase Assay; settings: enzymatic assay, ATP 200 uM
T1 construct: residues T544-V976 with N-terminal GST fusion; purchased deCODE Biostructures
T1 sequence (P10721 544-976 D816V): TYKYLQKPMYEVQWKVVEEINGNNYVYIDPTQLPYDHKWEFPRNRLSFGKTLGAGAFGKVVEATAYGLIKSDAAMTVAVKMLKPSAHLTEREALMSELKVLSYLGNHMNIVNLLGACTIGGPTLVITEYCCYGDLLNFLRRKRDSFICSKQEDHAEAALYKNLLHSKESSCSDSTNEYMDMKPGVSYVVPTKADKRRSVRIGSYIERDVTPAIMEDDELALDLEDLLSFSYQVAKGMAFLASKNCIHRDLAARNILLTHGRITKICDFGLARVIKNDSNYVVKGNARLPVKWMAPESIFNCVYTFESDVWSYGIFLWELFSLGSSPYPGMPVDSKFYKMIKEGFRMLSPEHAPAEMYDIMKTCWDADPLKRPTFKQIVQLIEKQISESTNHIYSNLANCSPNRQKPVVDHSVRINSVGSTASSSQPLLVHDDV
Description: (§1) In this assay, the oxidation of NADH (measured by decrease in absorbance at 340 nm) was continuously monitored spectrophotometrically. […] The inhibition reaction was started by mixing serial diluted test compound with the above reaction mixture. The absorption at 340 nm was monitored continuously for 5 hours at 30 °C on Synergy 2 plate reader (BioTech).
(§2) The protein construct was prepared by deCODE Biostructures using procedures known in the art. The construct contains residues T544-V976 of cKit, an N-terminal tag, a GST-fusion sequence and a TEV cleavage site. This construct is identical to Seq ID no.

[2] = molecular target: c-KIT kinase (Homo sapiens, UniProt P10721); assay: c-KIT kinase Assay; design: cKIT residues T544-V976; GST (N); TEV cleavage site (internal); purchased deCODE Biostructures; settings: enzymatic assay, ATP 200 µM; read-out: KIT (wt) IC50
c-KIT kinase, sequence (P10721 544-976): as the sequence (P10721 544-976 D816V) above, with V273D counted along it
Description: In this assay, the oxidation of NADH (measured by decrease in absorbance at 340 nm) was continuously monitored spectrophotometrically. […] The absorption at 340 nm was monitored continuously for 2 hours at 30 °C on Synergy 2 (BioTeK). The reaction rate was calculated using the 0 to 1 h time frame. Percent inhibition was obtained by comparison of reaction rate with that of a control (i.e. with no test compound). IC50 values were calculated from a series of percent inhibition values determined at a range of inhibitor concentrations using software routines as implemented in the GraphPad Prism software package. The protein construct was prepared by deCODE Biostructures using procedures known in the art. The construct contains […] of cKit, an N-terminal tag, a GST-fusion sequence and a TEV cleavage site. [formula]

[3] = molecular target: T2, c-KIT T670I kinase (Homo sapiens, UniProt P10721, T670I); assay: c-KIT T670I kinase assay; settings: enzymatic assay
T2 construct: The construct contains residues T544-V976 of cKit; GST (N); TEV cleavage site (internal); purchased deCODE Biostructures
T2 sequence (P10721 544-976 T670I): as the sequence (P10721 544-976 D816V) above, with T127I, V273D counted along it
Description: (§3) In this assay, the oxidation of NADH (measured by decrease in absorbance at 340 nm) was continuously monitored spectrophotometrically. […] The inhibition reaction was started by mixing serial diluted test compound with the above reaction mixture. The absorption at 340 nm was monitored continuously for 5 hours at 30 °C on Synergy 2 plate reader (BioTech). […] The protein construct was prepared by deCODE Biostructures using procedures known in the art. The construct contains […] of cKit, an N-terminal tag, a GST-fusion sequence and a TEV cleavage site. This construct is identical to Seq ID no. 1 except for the T670I mutation. [formula] [formula]

[4] = molecular target: T3, c-KIT V654A kinase (Homo sapiens, UniProt P10721, V654A); assay: c-KIT V654A Kinase Assay; settings: enzymatic assay, ATP 200 µM
T3 construct: residues T544-V976 with N-terminal GST fusion; purchased deCODE Biostructures
T3 sequence (P10721 544-976 V654A): as the sequence (P10721 544-976 D816V) above, with V111A, V273D counted along it
Description: as §1, with “6” for “5”
as §2

[5] = molecular target: T4, c-KIT D816H kinase (Homo sapiens, UniProt P10721, D816H); assay: c-KIT D816H Kinase Assay; settings: enzymatic assay, ATP 200 µM
T4 construct: The construct contains residues T544-V976 of cKit; GST (N); TEV cleavage site (internal); purchased deCODE Biostructures
T4 sequence (P10721 544-976 D816H): as the sequence (P10721 544-976 D816V) above, with V273H counted along it
Description: as §3, with “6” for “5”, “no.” for “no. 1 except for the T670I mutation. [formula] [formula]”

Row | IC50 [1] [nM] | IC50 [2] [nM] | IC50 [3] [nM] | IC50 [4] [nM] | IC50 [5] [nM] | Structure (SMILES)
1 | > 1000 |  |  |  |  | CNc1cc2c(cn1)cc(-c1cc(NC(=O)Nc3cccc(C#N)c3)ccc1Cl)c(=O)n2C [Example 11, 1-(4-chloro-3-(1-methyl-7-(methylamino)-2-oxo-1,2-dihydro-1,6-naphthyridin-3-yl)phenyl)-3-(3-cyanophenyl)urea]
2 | 100 to 1000 | 10 to 100 | 100 to 1000 |  |  | CCn1c(=O)c(-c2cc(NC(=O)Nc3ccccc3)c(F)cc2Cl)cc2cnc(NCCN(C)C)cc21 [Example 29, 1-(4-chloro-5-(7-(2-(dimethylamino)ethylamino)-1-ethyl-2-oxo-1,2-dihydro-1,6-naphthyridin-3-yl)-2-fluorophenyl)-3-phenylurea]
3 | 10 to 100 | < 10 | 10 to 100 | 10 to 100 | 10 to 100 | CCn1c(=O)c(-c2cc(NC(=O)Nc3ccc(F)cc3)c(F)cc2Cl)cc2cnc(NCCOC)cc21 [Example 34, 1-(4-chloro-5-(1-ethyl-7-(2-methoxyethylamino)-2-oxo-1,2-dihydro-1,6-naphthyridin-3-yl)-2-fluorophenyl)-3-(4-fluorophenyl)urea]
4 | 100 to 1000 | 10 to 100 | 100 to 1000 |  |  | CCn1c(=O)c(-c2cc(NC(=O)Nc3ccccc3)c(F)cc2Cl)cc2cnc(N[C@@H](C)COC)cc21 [Example 43, (S)-1-(4-chloro-5-(1-ethyl-7-(1-methoxypropan-2-ylamino)-2-oxo-1,2-dihydro-1,6-naphthyridin-3-yl)-2-fluorophenyl)-3-phenylurea]
5 | 10 to 100 | < 10 | 100 to 1000 |  |  | CNc1cc2c(cn1)cc(-c1cc(NC(=O)Nc3ccccc3)c(F)cc1Br)c(=O)n2C [Example 56, 1-(4-bromo-2-fluoro-5-(1-methyl-7-(methylamino)-2-oxo-1,2-dihydro-1,6-naphthyridin-3-yl)phenyl)-3-phenylurea]
6 | 100 to 1000 | < 10 | < 10 |  |  | CCn1c(=O)c(-c2cc(NC(=O)Nc3cc(F)ccc3F)c(F)cc2F)cc2cnc(NC)cc21 [Example 62, 1-(2,5-difluorophenyl)-3-(5-(1-ethyl-7-(methylamino)-2-oxo-1,2-dihydro-1,6-naphthyridin-3-yl)-2,4-difluorophenyl)urea]
7 | 100 to 1000 | 10 to 100 | 100 to 1000 |  |  | CCn1c(=O)c(-c2cc(NC(=O)Nc3ccccc3)c(F)cc2Br)cc2cnc(NC(=O)CC#N)cc21 [Example 64, N-(3-(2-bromo-4-fluoro-5-(3-phenylureido)phenyl)-1-ethyl-2-oxo-1,2-dihydro-1,6-naphthyridin-7-yl)-2-cyanoacetamide]
8 | 10 to 100 | < 10 | 10 to 100 |  |  | CCn1c(=O)c(-c2cc(NC(=O)Nc3ccccc3)c(F)cc2Cl)cc2cnc(NC(=O)CC#N)cc21 [Example 65, N-(3-(2-chloro-4-fluoro-5-(3-phenylureido)phenyl)-1-ethyl-2-oxo-1,2-dihydro-1,6-naphthyridin-7-yl)-2-cyanoacetamide]
9 | 100 to 1000 | 10 to 100 | 10 to 100 | 10 to 100 |  | CCn1c(=O)c(-c2cc(NC(=O)Nc3cc(F)cc(Cl)c3)c(F)cc2C)cc2cnc(NC)cc21 [Example 69, 1-(3-chloro-5-fluorophenyl)-3-(5-(1-ethyl-7-(methylamino)-2-oxo-1,2-dihydro-1,6-naphthyridin-3-yl)-2-fluoro-4-methylphenyl)urea]
10 | 100 to 1000 | 10 to 100 | 10 to 100 | 10 to 100 |  | CCn1c(=O)c(-c2cc(NC(=O)Nc3cc(F)cc(Cl)c3)c(F)cc2Cl)cc2cnc(NC)cc21 [Example 71, 1-(4-chloro-5-(1-ethyl-7-(methylamino)-2-oxo-1,2-dihydro-1,6-naphthyridin-3-yl)-2-fluorophenyl)-3-(3-chloro-5-fluorophenyl)urea]
11 | 10 to 100 | < 10 | < 10 | 100 to 1000 |  | CCn1c(=O)c(-c2cc(NC(=O)Nc3cc(C)cc(F)c3)c(F)cc2Cl)cc2cnc(NC)cc21 [Example 72, 1-(4-chloro-5-(1-ethyl-7-(methylamino)-2-oxo-1,2-dihydro-1,6-naphthyridin-3-yl)-2-fluorophenyl)-3-(3-fluoro-5-methylphenyl)urea]
12 | < 10 | < 10 | 10 to 100 |  |  | CCn1c(=O)c(-c2cc(NC(=O)Nc3ccccc3)c(F)cc2Cl)cc2cnc(NC(=O)COC)cc21 [Example 74, N-(3-(2-chloro-4-fluoro-5-(3-phenylureido)phenyl)-1-ethyl-2-oxo-1,2-dihydro-1,6-naphthyridin-7-yl)-2-methoxyacetamide]
13 | 10 to 100 | < 10 | 10 to 100 |  |  | CCn1c(=O)c(-c2cc(NC(=O)Nc3cccc(F)c3)c(F)cc2C)cc2cnc(NC(C)=O)cc21 [Example 78, N-(1-ethyl-3-(4-fluoro-5-(3-(3-fluorophenyl)ureido)-2-methylphenyl)-2-oxo-1,2-dihydro-1,6-naphthyridin-7-yl)acetamide]
14 | 10 to 100 | < 10 | 10 to 100 |  | < 10 | CCn1c(=O)c(-c2cc(NC(=O)Nc3ccccc3)c(F)cc2C)cc2cnc(NC(C)=O)cc21 [Example 80, N-(1-ethyl-3-(4-fluoro-2-methyl-5-(3-phenylureido)phenyl)-2-oxo-1,2-dihydro-1,6-naphthyridin-7-yl)acetamide]
15 | 100 to 1000 | 10 to 100 | 100 to 1000 |  |  | CCn1c(=O)c(-c2cc(NC(=O)Nc3cccc(CN4CCN(C)CC4)c3)c(F)cc2C)cc2cnc(NC)cc21 [Example 82, 1-(5-(1-ethyl-7-(methylamino)-2-oxo-1,2-dihydro-1,6-naphthyridin-3-yl)-2-fluoro-4-methylphenyl)-3-(3-((4-methylpiperazin-1-yl)methyl)phenyl)urea]
16 | 100 to 1000 | < 10 | 100 to 1000 |  |  | CCn1c(=O)c(-c2cc(NC(=O)Nc3cccc(CN4CCN(C)CC4)c3)c(F)cc2Br)cc2cnc(NC)cc21 [Example 83, 1-(4-bromo-5-(1-ethyl-7-(methylamino)-2-oxo-1,2-dihydro-1,6-naphthyridin-3-yl)-2-fluorophenyl)-3-(3-((4-methylpiperazin-1-yl)methyl)phenyl)urea]
17 | > 1000 | < 10 | 10 to 100 |  | 10 to 100 | CCn1c(=O)c(-c2cc(NC(=O)Nc3ccc(F)c(CN4CCN(C)CC4)c3)c(F)cc2F)cc2cnc(NC)cc21 [Example 90, 1-(5-(1-ethyl-7-(methylamino)-2-oxo-1,2-dihydro-1,6-naphthyridin-3-yl)-2,4-difluorophenyl)-3-(4-fluoro-3-((4-methylpiperazin-1-yl)methyl)phenyl)urea]
18 | 10 to 100 | < 10 | < 10 |  | < 10 | CCn1c(=O)c(-c2cc(NC(=O)Nc3ccccc3)c(F)cc2F)cc2cnc(NC(=O)N(C)C)cc21 [Example 112, 3-(3-(2,4-difluoro-5-(3-phenylureido)phenyl)-1-ethyl-2-oxo-1,2-dihydro-1,6-naphthyridin-7-yl)-1,1-dimethylurea]
19 | 100 to 1000 | 10 to 100 | > 1000 |  |  | CCn1c(=O)c(-c2cc(NC(=O)Nc3ccccc3)c(F)cc2I)cc2cnc(NC)cc21 [Example 114, 1-(5-(1-ethyl-7-(methylamino)-2-oxo-1,2-dihydro-1,6-naphthyridin-3-yl)-2-fluoro-4-iodophenyl)-3-phenylurea]
